Earlier results as cited in patent publication US20120172427A1, “(Z)-2-CYANO-3-HYDROXY-BUT-2-ENOIC ACID-(4'-TRIFLUOROMETHYLPHENYL)-AMIDE TABLET FORMULATIONS WITH IMPROVED STABILITY” (SANOFI, priority 2009, published 2012).

What was measured:
[1] = target: dihydroorotate dehydrogenase (Homo sapiens, UniProt Q02127); conditions: Bruneau et al., Biochem. J. 1998
[2] = system: immune cells and cell lines; conditions: wide variety of immune cells and cell lines; literature

Chain of dihydroorotate dehydrogenase (Q02127 whole entry): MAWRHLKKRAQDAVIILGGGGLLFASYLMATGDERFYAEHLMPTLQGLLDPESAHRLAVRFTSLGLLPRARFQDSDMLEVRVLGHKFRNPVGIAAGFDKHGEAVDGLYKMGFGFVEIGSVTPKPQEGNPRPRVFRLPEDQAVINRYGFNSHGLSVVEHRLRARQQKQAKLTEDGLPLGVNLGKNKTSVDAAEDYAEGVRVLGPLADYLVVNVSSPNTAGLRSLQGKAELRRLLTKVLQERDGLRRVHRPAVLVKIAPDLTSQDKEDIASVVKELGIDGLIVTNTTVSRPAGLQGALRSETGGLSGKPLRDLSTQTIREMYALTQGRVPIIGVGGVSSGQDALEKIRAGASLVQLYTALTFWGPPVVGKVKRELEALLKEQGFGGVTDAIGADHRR

inhibition of dihydroorotate dehydrogenase [1]: inhibits
SMILES: C/C(O)=C(\C#N)C(=O)Nc1ccc(C(F)(F)F)cc1 [Teriflunomide, (Z)-2-cyano-3-hydroxy-but-2-enoic acid-(4′-trifluoromethylphenyl)-amide]
antiproliferative effects [2]: antiproliferative effects
